Reference: US20240308992A1 (Biopolar Youtang(Guangdong) Pharmaceutical Co., Ltd., priority 2021, published 2024)

Each compound was assayed against T1, Drak2 (Homo sapiens, UniProt O94768) (assay: Drak2 activity test, ADP-Glo kinase assay (Promega)). Conditions: inhibition of Drak2 kinase activity, 2 h room temperature, activity range classes, read-out: IC50_Drak2.
T1 sequence (O94768 1-372): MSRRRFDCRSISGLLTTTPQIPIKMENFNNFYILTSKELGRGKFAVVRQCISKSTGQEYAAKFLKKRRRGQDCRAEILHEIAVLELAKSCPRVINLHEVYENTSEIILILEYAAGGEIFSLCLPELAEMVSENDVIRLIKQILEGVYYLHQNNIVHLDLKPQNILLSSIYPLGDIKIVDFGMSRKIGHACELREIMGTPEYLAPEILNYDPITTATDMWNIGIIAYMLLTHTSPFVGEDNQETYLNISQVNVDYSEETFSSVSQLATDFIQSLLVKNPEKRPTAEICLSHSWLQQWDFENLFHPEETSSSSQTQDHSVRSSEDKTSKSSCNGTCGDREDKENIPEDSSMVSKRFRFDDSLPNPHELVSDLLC
Assay type: biochemical

SMILES | IC50 [nM]
CCCCC(=O)Nc1csc(-c2cncc(-c3cc(F)c(O)c(OC)c3)n2)c1 [Example A38, N-(5-(6-(3-fluoro-4-hydroxy-5-methoxyphenyl)pyrazin-2-yl)thiophen-3-yl)pentanamide] | 1000 to 10000
CCCCC(=O)Nc1csc(-c2cncc(-c3ccc(-c4nc(=O)o[nH]4)c(OC)c3)n2)c1 [Example A39, N-(5-(6-(3-methoxy-4-(5-oxo-2,5-dihydro-1,2,4-oxadiazol-3-yl)phenyl)pyrazin-2-yl)thiophen-3-yl)pentanamide] | 101 to 1000
CCCCC(=O)Nc1csc(-c2cncc(-c3ccc(S(C)(=O)=O)cc3)n2)c1 [Example A40, N-(5-(6-(4-(methylsulfonyl)phenyl)pyrazin-2-yl)thiophen-3-yl)pentanamide] | 101 to 1000
CCCCC(=O)Nc1csc(-c2cncc(-c3ccc(F)c(O)c3)n2)c1 [Example A41, N-(5-(6-(4-fluoro-3-hydroxyphenyl)pyrazin-2-yl)thiophen-3-yl)pentanamide] | 101 to 1000
CCCCC(=O)Nc1csc(-c2cncc(-c3ccc(S(C)(=O)=O)c(OC)c3)n2)c1 [Example A42, N-(5-(6-(3-methoxy-4-(methylsulfonyl)phenyl)pyrazin-2-yl)thiophen-3-yl)pentanamide] | 101 to 1000
COc1cc(-c2cncc(-c3cc(NC(=O)CC4CC4)cs3)n2)ccc1S(C)(=O)=O [Example A43, 2-cyclopropyl-N-(5-(6-(3-methoxy-4-(methylsulfonyl)phenyl)pyrazin-2-yl)thiophen-3-yl)acetamide] | 11 to 100
COc1cc(-c2cncc(-c3cc(NC(=O)CC4CCC4)cs3)n2)ccc1S(C)(=O)=O [Example A44, 2-cyclobutyl-N-(5-(6-(3-methoxy-4-(methylsulfonyl)phenyl)pyrazin-2-yl)thiophen-3-yl)acetamide] | 11 to 100
CCCCC(=O)Nc1cc(-c2cncc(-c3ccc(S(C)(=O)=O)c(OC)c3)n2)sc1C [Example A45, N-(5-(6-(3-methoxy-4-(methylsulfonyl)phenyl)pyrazin-2-yl)-2-methylthiophen-3-yl)pentanamide] | 1000 to 10000
CCS(=O)(=O)c1ccc(-c2cncc(-c3cc(NC(=O)CC4CCC4)cs3)n2)cc1OC [Example A46, 2-cyclobutyl-N-(5-(6-(4-(ethylsulfonyl)-3-methoxyphenyl)pyrazin-2-yl)thiophen-3-yl)acetamide] | 101 to 1000
COc1cc(-c2cncc(-c3cc(NC(=O)CC4CCC4)cs3)n2)ccc1[S+](C)[O-] (stereo not drawn) [Example A47, 2-cyclobutyl-N-(5-(6-(3-methoxy-4-(methylsulfinyl)phenyl)pyrazin-2-yl)thiophen-3-yl)acetamide] | 101 to 1000
COc1cc(-c2cncc(-c3cc(NC(=O)CC4CCC4)cs3)n2)ccc1S(=O)(=O)C1CCC1 [Example A48, 2-cyclobutyl-N-(5-(6-(4-(cyclobutylsulfonyl)-3-methoxyphenyl)pyrazin-2-yl)thiophen-3-yl)acetamide] | 101 to 1000
Cn1ncc2ccc(-c3cncc(-c4cc(NC(=O)CC5CCC5)cs4)n3)cc21 [Example A49, 2-cyclobutyl-N-(5-(6-(1-methyl-1H-indazol-6-yl)pyrazin-2-yl)thiophen-3-yl)acetamide] | 11 to 100
CN1CCC(Cn2cc3ccc(-c4cncc(-c5cc(NC(=O)CC6CCC6)cs5)n4)cc3n2)CC1 [Example A50, 2-cyclobutyl-N-(5-(6-(2-((1-methylpiperidin-4-yl)methyl)-2H-indazol-6-yl)pyrazin-2-yl)thiophen-3-yl)acetamide] | 11 to 100
Cc1nn(C)c2cc(-c3cncc(-c4cc(NC(=O)CC5CCC5)cs4)n3)ccc12 [Example A51, 2-cyclobutyl-N-(5-(6-(1,3-dimethyl-1H-indazol-6-yl)pyrazin-2-yl)thiophen-3-yl)acetamide] | 101 to 1000
O=C(CC1CCC1)Nc1csc(-c2cncc(-c3ccc4cn[nH]c4c3)n2)c1 [Example A52, N-(5-(6-(1H-indazol-6-yl)pyrazin-2-yl)thiophen-3-yl)-2-cyclobutylacetamide] | 11 to 100
CCCCC(=O)Nc1csc(-c2cncc(-c3ccc(C(=O)OC)c(OC)c3)n2)c1 [Example B1, Methyl 2-methoxy-4-(6-(4-pentanamidothiophen-2-yl)pyrazin-2-yl)benzoate] | 101 to 1000
CCCCC(=O)Nc1csc(-c2cncc(-c3ccc(C(=O)O)c(OC)c3)n2)c1 [Example B2, 2-methoxy-4-(6-(4-pentanamidothiophen-2-yl)pyrazin-2-yl)benzoic acid] | 11 to 100
CCCCC(=O)Nc1csc(-c2cncc(-c3ccc(C(N)=O)c(OC)c3)n2)c1 [Example B3, 2-methoxy-4-(6-(4-pentanamidothiophen-2-yl)pyrazin-2-yl)benzamide] | 101 to 1000

SMILES | IC50 [nM]
CCCCC(=O)Nc1csc(-c2cncc(-c3ccc(C(=O)Nc4nnn[nH]4)c(OC)c3)n2)c1 [Example B4, 2-methoxy-4-(6-(4-pentanamidothiophen-2-yl)pyrazin-2-yl)-N-(1H-tetrazol-5-yl)benzamide] | 11 to 100
CCCCC(=O)Nc1csc(-c2cncc(-c3ccc(C(=O)Nc4ncc[nH]4)c(OC)c3)n2)c1 [Example B5, 2-methoxy-4-(6-(4-pentanamidothiophen-2-yl)pyrazin-2-yl)-N-(1H-imidazol-2-yl) benzamide] | 101 to 1000
COc1cc(-c2cncc(-c3cc(NC(=O)C4CCCCC4)cs3)n2)ccc1C(=O)O [Example B6, 4-(6-(4-(cyclohexanecarboxamido)thiophen-2-yl)pyrazin-2-yl)-2-methoxybenzoic acid] | 101 to 1000
CCCCC(=O)Nc1csc(-c2cncc(-c3ccc(C(=O)NS(=O)(=O)N(C)C)c(OC)c3)n2)c1 [Example B7, 2-methoxy-4-(6-(4-pentanamidothiophen-2-yl)pyrazin-2-yl)-N-(N,N-dimethylsulfamoyl)benzamide] | 101 to 1000
CCCCC(=O)Nc1csc(-c2cncc(-c3ccc(C(=O)Nc4nccs4)c(OC)c3)n2)c1 [Example B8, 2-methoxy-4-(6-(4-pentanamidothiophen-2-yl)pyrazin-2-yl)-N-(thiazol-2-yl)benzamide] | 1000 to 10000
CCCC(=O)Nc1csc(-c2cncc(-c3ccc(C(=O)Nc4nnn[nH]4)c(OC)c3)n2)c1 [Example B9, 2-methoxy-4-(6-(4-butyramidothiophen-2-yl)pyrazin-2-yl)-N-(1H-tetrazol-5-yl)benzamide] | 101 to 1000
COc1cc(-c2cncc(-c3cc(NC(C)=O)cs3)n2)ccc1C(=O)Nc1nnn[nH]1 [Example B10, 2-methoxy-4-(6-(4-acetamidothiophen-2-yl)pyrazin-2-yl)-N-(1H-tetrazol-5-yl)benzamide] | 101 to 1000
CCC(=O)Nc1csc(-c2cncc(-c3ccc(C(=O)Nc4nnn[nH]4)c(OC)c3)n2)c1 [Example B11, 2-methoxy-4-(6-(4-propionamidothiophen-2-yl)pyrazin-2-yl)-N-(1H-tetrazol-5-yl)benzamide] | 101 to 1000
COc1cc(-c2cncc(-c3cc(NC(=O)CC4CC4)cs3)n2)ccc1C(=O)Nc1nnn[nH]1 [Example B12, 2-methoxy-4-(6-(4-(2-cyclopropylacetamido)thiophen-2-yl)pyrazin-2-yl)-N-(1H-tetrazol-5-yl)benzamide] | 101 to 1000
COc1cc(-c2cncc(-c3cc(NC(=O)Cc4ccco4)cs3)n2)ccc1C(=O)Nc1nnn[nH]1 [Example B13, 2-methoxy-4-(6-(4-(2-(furan-2-yl)acetamido)thiophen-2-yl)pyrazin-2-yl)-N-(1H-tetrazol-5-yl)benzamide] | 101 to 1000
COc1cc(-c2cncc(-c3cc(NC(=O)CC4CCCCC4)cs3)n2)ccc1C(=O)Nc1nnn[nH]1 [Example B14, 2-methoxy-4-(6-(4-(2-cyclohexylacetamido)thiophen-2-yl)pyrazin-2-yl)-N-(1H-tetrazol-5-yl)benzamide] | 101 to 1000
CCCCC(=O)Nc1csc(-c2cncc(-c3ccc(C(=O)Nc4nnnn4C)c(OC)c3)n2)c1 [Example B15, 2-methoxy-4-(6-(4-pentanamidothiophen-2-yl)pyrazin-2-yl)-N-(1-methyl-1H-tetrazol-5-yl)-benzamide] | 11 to 100
CCCCCC(=O)Nc1csc(-c2cncc(-c3ccc(C(=O)Nc4nnn[nH]4)c(OC)c3)n2)c1 [Example B16, 2-methoxy-4-(6-(4-hexanamidothiophen-2-yl)pyrazin-2-yl)-N-(1H-tetrazol-5-yl)benzamide] | 101 to 1000
CCCCCCC(=O)Nc1csc(-c2cncc(-c3ccc(C(=O)Nc4nnn[nH]4)c(OC)c3)n2)c1 [Example B17, 2-methoxy-4-(6-(4-heptanamidothiophen-2-yl)pyrazin-2-yl)-N-(1H-tetrazol-5-yl)benzamide] | 1000 to 10000
CCCCCCCC(=O)Nc1csc(-c2cncc(-c3ccc(C(=O)Nc4nnn[nH]4)c(OC)c3)n2)c1 [Example B18, 2-methoxy-4-(6-(4-octanamidothiophen-2-yl)pyrazin-2-yl)-N-(1H-tetrazol-5-yl)benzamide] | > 10000
CCCCCCCCC(=O)Nc1csc(-c2cncc(-c3ccc(C(=O)Nc4nnn[nH]4)c(OC)c3)n2)c1 [Example B19, 2-methoxy-4-(6-(4-nonanamidothiophen-2-yl)pyrazin-2-yl)-N-(1H-tetrazol-5-yl)benzamide] | > 10000
CCCCCCCCCC(=O)Nc1csc(-c2cncc(-c3ccc(C(=O)Nc4nnn[nH]4)c(OC)c3)n2)c1 [Example B20, 2-methoxy-4-(6-(4-decanamidothiophen-2-yl)pyrazin-2-yl)-N-(1H-tetrazol-5-yl)benzamide] | > 10000
CCCCCCCCCCC(=O)Nc1csc(-c2cncc(-c3ccc(C(=O)Nc4nnn[nH]4)c(OC)c3)n2)c1 [Example B21, 2-methoxy-4-(6-(4-undecanamidothiophen-2-yl)pyrazin-2-yl)-N-(1H-tetrazol-5-yl)benzamide] | > 10000
